The values that follow come from PubChem BioAssay (NCI).

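Cultured in 96-well plates, cells were exposed to test compound for 48 hours across five concentrations. GI50: concentration for 50% inhibition of growth. TGI: total growth inhibition.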

Some test systems named below: EKVX NSCLC; HCT-116 colon; IGROV1 ovarian; NCI-H522 lung; NCI/ADR-RES ovarian; OVCAR-3 ovarian; RPMI-8226 leukemia; RXF 393 renal; SK-MEL-5 melanoma; SW-620 colon.
Common to all, as to assay: growth of human tumour cells (NCI), 48 h

`Cc1ccc2ccccc2c1CSc1nc(N)nc2c1ncn2CC(C)C`: the TGI in the experiment with EKVX NSCLC is > 100 µM; with HCT-116 colon, > 100 µM; with IGROV1 ovarian, > 100 µM; in the experiment with NCI-H522 lung, 96.9 µM; with NCI/ADR-RES ovarian, > 100 µM; in the experiment with OVCAR-3 ovarian, > 100 µM. Moreover, the TGI is > 73.3 µM in the experiment with RPMI-8226 leukemia, > 90.7 µM in the experiment on RXF 393 renal, 20.3 µM in the experiment with SK-MEL-5 melanoma and > 100 µM in the experiment on SW-620 colon.
Turning to `Cc1ccc(NC(=O)COc2ccc(Cl)cc2)cc1Cl`, the TGI in the experiment on EKVX NSCLC, in the experiment with HCT-116 colon, in the experiment with IGROV1 ovarian, in the experiment on NCI-H522 lung, in the experiment on NCI/ADR-RES ovarian and in the experiment on OVCAR-3 ovarian was > 100 µM each time. Moreover, the TGI in the experiment on RPMI-8226 leukemia, in the experiment on RXF 393 renal, with SK-MEL-5 melanoma and in the experiment on SW-620 colon was > 100 µM each time.
On to `CN1C(=O)N(C)C2C1NC(=S)N2/N=C/C=C/c1ccccc1[N+](=O)[O-]` (stereo not given), for which the GI50 with EKVX NSCLC was 3.86 µM; in the experiment on HCT-116 colon, 0.634 µM; in the experiment with IGROV1 ovarian, 2.48 µM; with NCI-H522 lung, 0.318 µM; with NCI/ADR-RES ovarian, 2.16 µM; with OVCAR-3 ovarian it was 0.344 µM. Moreover, the GI50 in the experiment with RPMI-8226 leukemia was 2.74 µM; with RXF 393 renal, 2.42 µM; in the experiment with SK-MEL-5 melanoma it was 0.753 µM; with SW-620 colon, 0.596 µM. The TGI is > 100 µM in the experiment with EKVX NSCLC; > 100 µM in the experiment on HCT-116 colon; > 100 µM with IGROV1 ovarian; 9.65 µM in the experiment on NCI-H522 lung; > 100 µM with NCI/ADR-RES ovarian; > 100 µM in the experiment with OVCAR-3 ovarian. The TGI in the experiment with RPMI-8226 leukemia, with RXF 393 renal, in the experiment on SK-MEL-5 melanoma and in the experiment with SW-620 colon was > 100 µM in each case.
As for `C=C1C(=O)O[C@@H]2/C=C(/C)[C@@H](OC(C)=O)C[C@@H](O)/C(C)=C\[C@@H](OC(=O)[C@]3(C)O[C@@H]3C)[C@@H]12`, the TGI was 24.4 µM in the experiment with EKVX NSCLC; 13.6 µM in the experiment with HCT-116 colon; 32.9 µM in the experiment on IGROV1 ovarian; 2.81 µM in the experiment with NCI-H522 lung; > 100 µM with NCI/ADR-RES ovarian; 23.8 µM in the experiment with OVCAR-3 ovarian. The TGI in the experiment on RPMI-8226 leukemia is 26.3 µM; in the experiment on RXF 393 renal it was 29.3 µM; with SK-MEL-5 melanoma, 24.7 µM; in the experiment with SW-620 colon, 18.5 µM.
As to `O=C(Nc1cccc([N+](=O)[O-])c1)c1cccc(C(=O)Nc2cccc([N+](=O)[O-])c2)c1`, the GI50 was > 59.9 µM in the experiment with EKVX NSCLC; 41.9 µM with HCT-116 colon; 33.9 µM in the experiment with IGROV1 ovarian; 3.32 µM with NCI-H522 lung; > 100 µM with NCI/ADR-RES ovarian; > 100 µM in the experiment on OVCAR-3 ovarian. Besides, the GI50 was > 100 µM in the experiment on RPMI-8226 leukemia, 14.7 µM in the experiment with RXF 393 renal, > 100 µM in the experiment with SK-MEL-5 melanoma and > 100 µM in the experiment on SW-620 colon. In addition, the TGI in the experiment with EKVX NSCLC, with HCT-116 colon, with IGROV1 ovarian, in the experiment on NCI-H522 lung, in the experiment with NCI/ADR-RES ovarian and in the experiment on OVCAR-3 ovarian was > 100 µM in each case. Moreover, the TGI in the experiment on RPMI-8226 leukemia is > 100 µM; in the experiment with RXF 393 renal, 38.8 µM; in the experiment with SK-MEL-5 melanoma, > 100 µM; with SW-620 colon, > 100 µM.
With `N#C/C(=C\c1ccc[nH]1)c1cc(-c2ccc(Cl)cc2)nn1-c1ccccc1`, the GI50 in the experiment on EKVX NSCLC was 2.89 µM; in the experiment on HCT-116 colon, 3.28 µM; with IGROV1 ovarian, 14 µM; with NCI-H522 lung, 5.19 µM; in the experiment on NCI/ADR-RES ovarian it was 3.93 µM; in the experiment with OVCAR-3 ovarian, 2.37 µM. Besides, the GI50 was 2.48 µM in the experiment with RPMI-8226 leukemia, 6.89 µM in the experiment with RXF 393 renal, 6.47 µM in the experiment with SK-MEL-5 melanoma and 3.75 µM with SW-620 colon. Besides, the TGI with EKVX NSCLC was > 100 µM; with HCT-116 colon, 12.8 µM; in the experiment with IGROV1 ovarian, > 95.4 µM; in the experiment on NCI-H522 lung, 29.4 µM; in the experiment with NCI/ADR-RES ovarian it was > 31.4 µM; in the experiment with OVCAR-3 ovarian, 8.69 µM. In addition, the TGI in the experiment with RPMI-8226 leukemia was 9.77 µM; in the experiment with RXF 393 renal, 24.2 µM; with SK-MEL-5 melanoma it was 19.4 µM; with SW-620 colon it was > 41.8 µM.
With `CC1(C)OCC2OC(n3cnc4c(N)nc(Cl)nc43)C(OS(C)(=O)=O)C2O1` (stereo not given), the TGI with EKVX NSCLC, in the experiment with HCT-116 colon, in the experiment on IGROV1 ovarian, with NCI-H522 lung, with NCI/ADR-RES ovarian and in the experiment with OVCAR-3 ovarian was > 100 µM throughout. Also, the TGI in the experiment on RPMI-8226 leukemia, in the experiment with RXF 393 renal, in the experiment on SK-MEL-5 melanoma and in the experiment with SW-620 colon was > 100 µM each time.
